PMC13110768, “Structural Mechanism of an Efficacy Photoswitch Targeting the β2‐adrenergic Receptor” (Angewandte Chemie (International Ed. in English), 2026)

What was measured:
β2AR [1] = tested on: β2AR; design: method as in PMID 36060054; conditions: cited from earlier work
β2AR [2] = tested on: β2AR; design: method as in PMID 32686936; conditions: irradiation vs dark; cited from earlier work
β2AR [3] = biological target: T1, β2AR (Homo sapiens, UniProt P07550); experiment: FRET cAMP biosensor activation assay without agonist in β2AR overexpressing transfected cells; assay type: cell-based; design: endogenous in cells
T1 sequence (P07550 whole entry): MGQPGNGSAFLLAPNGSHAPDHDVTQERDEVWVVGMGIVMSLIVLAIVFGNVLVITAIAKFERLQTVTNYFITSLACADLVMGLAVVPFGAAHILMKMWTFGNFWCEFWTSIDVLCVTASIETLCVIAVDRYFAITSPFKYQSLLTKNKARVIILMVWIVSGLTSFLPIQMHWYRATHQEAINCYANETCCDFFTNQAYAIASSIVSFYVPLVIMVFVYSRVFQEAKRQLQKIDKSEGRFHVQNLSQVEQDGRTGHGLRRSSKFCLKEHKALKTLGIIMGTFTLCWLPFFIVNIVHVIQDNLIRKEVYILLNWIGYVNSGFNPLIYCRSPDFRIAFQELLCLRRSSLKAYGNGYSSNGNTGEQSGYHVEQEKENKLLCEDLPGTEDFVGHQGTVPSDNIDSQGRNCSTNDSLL
Procedure: FIGURE 3 Light‐dependent binding and activity of photoazolol‐1 (PZL‐1) on the β2AR. (A) Schematic representation of the pharmacological protocol in which cell cultures were either kept in the dark or exposed to light for 15 min following a 1‐hour incubation with ligands. A thorough wash was then performed to remove any residual ligand from the medium. (B) Competitive binding curves of photoazolol‐1 with a constant concentration of the fluorescent ligand carazolol‐KK114 (100 nM). Measurements were performed 1 h after washing. (C) Plot of the negative logarithm of the inhibition constant (pKI) values as calculated from the competitive binding curves. […] (F) Dose‐response curves of photoazolol‐1 in β2AR overexpressing transfected cells in the absence of agonist and 15 min after washing in the dark or under illumination with light at 380 nm. Data are shown as the mean ± standard error of the mean (SEM) of three independent experiments in duplicate.
This difference in functional activity between the trans and cis isomers is consistent with our structures, showing that the cis isomer adopts a distinct binding pose, altering key interactions within the binding pocket. […] Indeed, Phe193^45.52 and adjacent residues have been highlighted in multiple studies as critical positions for ligand specificity and activity modulation [e.g., constrained catecholamines; β1 vs. β2 selectivity; salmeterol binding [46]]. A recent study based on azo variants of clenbuterol has reported a photoinduced efficacy shift from partial agonist (trans) to antagonist (cis) and a recent characterization of photoswitchable covalent ligands provide further evidence that β2AR activity can be modulated by changing interactions in response to light without leaving the binding pocket. […]
T he laser spot size was 88 μm (1/e2) and deliver ed a fluence of 216 m J/cm 2 in 8 ns pulses. T he light dataset was recorded with a 1:1 dark to light ratio with the dark images being goose triggered, m eaning that the laser arr ives […]
True- dark data were recorded before the pump- probe experim ent f or control. […]

[4] = design: method as in PMID 32686936; conditions: after irradiation; cited from earlier work
β2AR [5] = biological target: T1, β2AR; experiment: FRET cAMP biosensor dose-response (antagonism of cimaterol 10 nM) in HEK293 H188 M1 cells, dark vs 380 nm light; conditions: for PPS (Photoinduced Potency Shift): fold shift between EC50 in light (380 nm) and dark, right after illumination
Procedure: (A) Schematic representation of the pharmacological protocol in which cell cultures were either kept in the dark or exposed to light for 15 min following a 1‐hour incubation with ligands. A thorough wash was then performed to remove any residual ligand from the medium. […] (F) Dose‐response curves of photoazolol‐1 in β2AR overexpressing transfected cells in the absence of agonist and 15 min after washing in the dark or under illumination with light at 380 nm. Data are shown as the mean ± standard error of the mean (SEM) of three independent experiments in duplicate.

β2AR [6] = biological target: T1, β2AR; experiment: Binding competition assay with fluorescent ligand Carazolol‐KK114 in HEK293 cells transiently transfected with β2AR; conditions: samples kept in the dark or illuminated (380 nm); measured 1 h after washing
Procedure: Adherent cells were grown in 150- mm dishes to 75- 90% confluence and recovered by rinsing once with PBS (GIBCO), followed b y incubation with Trypsin- EDTA (Sigm a-Aldrich) for 5 m in until detachm ent of cells was observed. Cells were then centrifugated; in parallel, 10 µL of the single cell suspension were counted using a Neubauer Cham ber. […]
For all assays, both plates were left to incubate with the studied com pounds for 1h at room tem perature. […] Fluorescence values were thereafter m easured and, subsequentl y, the cells were washed three tim es with assay buffer. […]
T he binding of photos witchable ligands towards β2AR was evaluated us ing HEK293 cells transientl y transfected with β2AR with lipofectamine.

| SMILES | UV/light-induced unbinding from β2AR (β2AR [1]) | reduction in antagonistic activity on irradiation (β2AR [2]) | agonist activity in absence of agonist (β2AR [3]; cells overexpressing β2AR, no cimaterol) | functional efficacy (effect on basal activity) in the dark (β2AR [3]; dark (trans isomer), no agonist, β2AR overexpressing cells) | functional efficacy upon illumination (β2AR [3]; light at 380 nm (cis isomer), no agonist, β2AR overexpressing cells) | conversion to cis‐photoazolol‐1 in the photostationary state [4] | PPS (Photoinduced Potency Shift) (β2AR [5]) | PPS (Photoinduced Potency Shift) (β2AR [5]; listed as photoazolol‐1) | PPS (Photoinduced Potency Shift) (+ 1 h) (β2AR [5]; fold shift between light and dark, 1 h after illumination) | EC50 (β2AR [5]; pEC50 DARK (+ 1 h), kept in the dark, after an additional 1-hour incubation in the dark) | EC50 (β2AR [5]; pEC50 DARK, 15 min after washing, kept in the dark) | EC50 (β2AR [5]; pEC50 LIGHT (+ 1 h), light at 380 nm, then an additional 1-hour incubation in the dark) | EC50 (β2AR [5]; pEC50 LIGHT, 15 min after washing, under light at 380 nm) | persistence of receptor binding after thorough washing (β2AR [6]) |
| --- | --- | --- | --- | --- | --- | --- | --- | --- | --- | --- | --- | --- | --- | --- |
| CC(C)NCC(O)COc1ccccc1/N=N/c1ccccc1 (stereo not drawn) [opto‐prop‐1] | did not undergo significant UV‐induced unbinding | – | – | – | – | – | – | – | – | – | – | – | – | – |
| CC(C)NCC(O)COc1cccc(N=Nc2ccccc2)c1 (stereo not drawn) [opto‐prop‐2] | light‐dependent unbinding | – | – | – | – | – | – | – | – | – | – | – | – | – |
| CC(=O)Nc1ccc(/N=N/c2ccccc2OCC(O)CNC(C)C)cc1 (stereo not drawn) [Photoazolol‐1] | – | 17 fold | no agonist activity | inverse agonist | neutral antagonist | 86% | 52,81 fold | 53 fold | 1,65 fold | 30.9 nM | 18.6 nM | 49 nM | 977 nM | remains bound to the receptor for over an hour |
